Measured values published in patent publication US20250206708A1, “AN OXAZIRIDINE PLATFORM FOR TARGETING FUNCTIONAL ALLOSTERIC METHIONINE SITES” (Novartis AG, priority 2022, published 2025).

Test system: CDK4
Assay: Western blot of Rb phosphorylation (S780, S807/811) as cellular CDK4 activity
Type: cell-based, human
Conditions: serum-synchronized MCF-7 cells, dose of 500 μM
Method: Cells were synchronized to G1 via serum starvation. Cells were plated at 50% confluency and allowed to adhere overnight in serum-containing media. The next morning, the cells were gently washed twice with HBSS, and serum-free media was added. Cells were allowed to incubate an additional […], […]. Final cell confluency should remain below 75% for optimal results.
Cells were seeded in full media at 8 e5 cells/well in a 6-well plate. They were then serum-synchronized, as outlined in Example 15, and treated with compound as described previously. Cells were monitored by eye for cell death and harvested once high-dose cells were round but not detached. Cells were transferred to ice and washed twice gently with 1 mL ice-cold PBS. 10 mL of lysis buffer was prepared by dissolved a protease-inhibitor table (Pierce; cat no. A32953) and a phosphatase-inhibitor tablet (Roche; cat no. 4906845001) in 10 mL PBS (1% Triton X-100). Cells were scraped to harvest, transferred to 1.5 mL Eppendorf tubes, and incubated at 4° C. for 30 min on a rotator. Samples were spun at 5000×g for 10 min to clarify lysate. Supernatant was transferred to a new tube and protein concentration quantified via BCA assay (Pierce; cat no. 23225). Samples were normalized to the lowest concentration using chilled lysis buffer. […]

| Compound | signal from pRb antibodies (cellular CDK4 activity) |
| --- | --- |
| C#CCOC(=O)N1C[C@@H]2CN(C(=O)N3OC3c3ccccc3)C[C@@H]2C1 (stereo partly shown) [Compound 300] | marked decrease in signal |

Test system: not given
Assay: not given
Conditions: sulfimine adduct; obtained from previous report; the values are: ln(kobs), kobs in 1/h; cited from earlier work

| Compound | Rate of Hydrolysis (In(kobs)) |
| --- | --- |
| CS(C)=NC(=O)N1CCCCC1 | -1.81 |
| CS(C)=NC(=O)N1CCCC1 | -0.96 |
| CS(C)=NC(=O)NC(C)(C)C | -0.28 |
| CS(C)=NC(=O)NCC(C)(C)C | -0.15 |
| CC(C)CNC(=O)N=S(C)C | -0.085 |
| CS(C)=NC(=O)NC1CCCCC1 | 0.032 |
| CC(C)NC(=O)N=S(C)C | 0.044 |
| CCNC(=O)N=S(C)C | 0.17 |
| CS(C)=NC(=O)NC(c1ccccc1)c1ccccc1 | 0.24 |
| CS(C)=NC(=O)NCc1ccccc1 | 0.29 |
| CS(C)=NC(=O)NCC(F)(F)F | 0.53 |
| CCOC(=O)N=S(C)C | 1.69 |
